Experimental data as given in patent US6348454B1, “Syntheses of new isodethiaazacephems and isodethiaazacephams, and use as potent antibacterial agents” (National Science Council, priority 1999, dated 2002).
Values after ≈ are worked out from the molar mass of the structure shown. Read-outs that look alike come from different tables or passages of the source.

Columns and labels:
[1] = test system: E. coli ATCC 39188; experiment: Antibacterial activity, serial broth dilution method (MIC); type: cell-based; details: for MIC: Escherichia coli, read-out: Minimal Inhibitory Concentrations
Method: (§1) Antimicrob. Agents Chemother. 1978, 14, 807-811] penicillin G [Morris, J. J.; Page, M. I. Intra- and Intermolecular Catalysis in the Aminolysis of Benzylpenicillin. J. Chem. Soc., Perkin Trans 2 1980, 212-219], and 7-(β-phenylacetamido)-3′-desacetoxycephalosporanic acid (±)−2 [Page, M. L.; Proctor, P. Mechanism of β-Lactam Opening in Cephalosporins. J. Am. Chem. Soc. 1984, 106, 3820-3825] in vitro against five pathogenic microorganisms. The doses used were as high as 128 μg/mL.
(§2) The serial broth dilution method was used to study the antibiotic activity [Pursiano, T. A.; Misiek, M.; Leitner, F.; Price, K. E. Effect of Assay Medium on the Antibacterial Activity of Certain Penicillins and Cephalosporins. Antimicrob. Agents Chemother. 1973, 3, 33-39]. The inocula were prepared by use of the heart infusion broth (Difco Laboratories) to make 10^−4 dilutions of the overnight cultures. Tubes of the seeded antibiotic-containing media were incubated at 37° C. for 20 h. The lowest concentration of antibiotic that prevented visible growth of microorganisms was then determined.

[2] = test system: K. pneumoniae NCTC 418; experiment: as above; type: cell-based; details: for MIC: Klebsiella pneumoniae, read-out: Minimal Inhibitory Concentrations
Method: as §1, §2

[3] = test system: Ps. aeruginosa 1101-75; experiment: as above; type: cell-based; details: for MIC: read-out: Minimal Inhibitory Concentrations
Method: as §1, §2

[4] = test system: S. aureus FDA 209P; experiment: as above; type: cell-based; details: 20 h; for MIC: Staphylococcus aureus, FDA209P, read-out: Minimal Inhibitory Concentrations
Method: as §1, §2

[5] = test system: S. typhi O-901; experiment: as above; type: cell-based; details: 20 h; for MIC: Salmonella enterica, TYPHI, read-out: Minimal Inhibitory Concentrations; for Minimal Inhibitory Concentrations: S. typhi O-901, average of triplicate determinations, 37° C.
Method: as §1, §2

[6] = Stability of β-lactams in water at various pH; details: for time within which pH of the aqueous solution changed to ˜1 (destruction of β-lactam ring): initial pH about 4.0; for time the β-lactam ring survived / time within which β-lactam ring was destructed: pH 1.0
Method: In another series of assays, we dissolved isodethiaazacephems (±)−3 and (±)−4 as well as isodethiaazacepham (±)−5 in distilled water (5.0 mg/mL).

[7] = test system: five pathogenic microorganisms; experiment: Antibacterial activity in vitro, summary in words; type: cell-based; details: doses as high as 128 μg/mL; Table 1
Method: as §1, §2

[8] = physchem
[9] = ATCC39188, E. coli ATCC 39188, average of triplicate determinations, 37° C., 20 h
[10] = NCTC418, K. pneumoniae NCTC 418, average of triplicate determinations, 37° C., 20 h
[11] = Pseudomonas aeruginosa, 110175, Ps. aeruginosa 1101-75, average of triplicate determinations, 37° C., 20 h
[12] = S. aureus FDA 209P, average of triplicate determinations, 37° C.
[13] = Pseudomonas aeruginosa, 110175, 20 h
[14] = E. coli ATCC 39188, average of triplicate determinations, 37° C., 20 h
[15] = K. pneumoniae NCTC 418, average of triplicate determinations, 37° C., 20 h
[16] = Ps. aeruginosa 1101-75, average of triplicate determinations, 37° C., 20 h

| Compound | MIC [1, 9] [µg/mL] | MIC [2, 10] [µg/mL] | MIC [3, 11] [µg/mL] | MIC [4, 12] [µg/mL] | MIC [5] [µg/mL] | initial pH value of the aqueous solution ([6]; distilled water, 5.0 mg/mL) | antibacterial activity (in words) [7] | melting point [°C] | MIC ([2]; NCTC418, 20 h) [µg/mL] | MIC [3, 13] [µg/mL] | Minimal Inhibitory Concentrations [1, 14] [µg/mL] | Minimal Inhibitory Concentrations [4, 12] [µg/mL] | Minimal Inhibitory Concentrations [5] [µg/mL] | further results |
| --- | --- | --- | --- | --- | --- | --- | --- | --- | --- | --- | --- | --- | --- | --- |
| CS(=O)(=O)OC1=C(C(=O)O)N2C(=O)[C@@H](NC(=O)Cc3ccccc3)[C@H]2CN1 (racemic) [(±)-3, (6RS,7SR)-3-Methanesulfonyloxy-8-oxo-7-(phenylacetamido)-1,4-diazabicyclo[4.2.0]oct-2-ene-2-carboxylic Acid] | 0.95 (≈ 2.4 µM) | 0.68 (≈ 1.72 µM) | 4.38 (≈ 11.1 µM) | 0.07 (≈ 0.177 µM) | 1.2 (≈ 3.03 µM) | about 4.0 | promising antimicrobial activities | 115 to 117 |  |  |  |  |  | time within which pH of the aqueous solution changed to ˜1 (destruction of β-lactam ring) ([6]; distilled water, 5.0 mg/mL): three; time the β-lactam ring survived [6]: ~4 h; solubility ([8]; water): 21 mg/mL (≈ 53100 µM) |
| O=C(Cc1ccccc1)N[C@@H]1C(=O)N2C(C(=O)OCc3ccccc3)=C(OS(=O)(=O)C(F)(F)F)NC[C@H]12 (racemic) [(±)-12, Benzyl (6RS,7SR)-3-Trifluoromethanesulfonyloxy-8-oxo-7-(phenylacetamido)-1,4-diazabicyclo[4.2.0]oct-2-ene-2-carboxylate] |  |  |  |  | > 128 |  | do not exhibit antibacterial activity |  | > 128 | > 128 |  |  |  | MIC ([1]; ATCC39188, 20 h): > 128 µg/mL; MIC [4]: > 128 µg/mL |
| O=C(Cc1ccccc1)N[C@@H]1C(=O)N2C(C(=O)O)=C(O)NC[C@H]12 (racemic) [(±)-10, (6RS,7SR)-3-Hydroxy-8-oxo-7-(phenylacetamido)-1,4-diazabicyclo[4.2.0]-oct-2-ene-2-carboxylic Acid] | 94.7 (≈ 298 µM) |  |  | 29.5 (≈ 93 µM) | > 128 |  |  | 140 to 142 | > 128 | > 128 |  |  |  | time stable in phosphate buffer ([6]; phosphate buffer (0.10 M, pH 6.8)): two; solubility ([8]; pH 6.8, aqueous buffer): 35 mg/mL (≈ 110000 µM) |
| CC1=C(C(=O)O)N2C(=O)C(NC(=O)Cc3ccccc3)C2SC1 (single isomer, unassigned; (+)) [(+)-2, 7-(β-phenylacetamido)-3′-desacetoxycephalosporanic acid, reference compound] |  |  |  |  |  |  |  |  |  |  | 13.13 | 0.64 | 24.50 | Minimal Inhibitory Concentrations [2, 15]: 2.98 µg/mL; Minimal Inhibitory Concentrations [3, 16]: 100.0 µg/mL |
| CO/N=C(\C(=O)N[C@@H]1C(=O)N2C(C(=O)O)=C(COC(C)=O)CS[C@H]12)c1csc(N)n1 [cefotaxime, reference compound] | 0.25 (≈ 0.549 µM) | 10.2 (≈ 22.5 µM) | 62.4 (≈ 137 µM) | 0.08 (≈ 0.176 µM) | 20.3 (≈ 44.6 µM) |  |  |  |  |  |  |  |  |  |
| (2RS,6RS,7SR)- and (2SR,6RS,7SR)-2-Methanesulfonyl-3,8-dioxo-7-(phenylacetamido)-1,4-diazabicyclo[4.2.0]octane-2-carboxylic Acid [(±)-5] |  |  |  |  |  | about 2.0 | profound antibacterial activity |  |  |  | 97.17 | 48.50 | 65.30 | Minimal Inhibitory Concentrations [2, 15]: 51.02 µg/mL; Minimal Inhibitory Concentrations [3, 16]: 120.0 µg/mL; time within which β-lactam ring was destructed ([6]; acidic solution): ≤ 3 h; time of decarboxylation ([6]; basic solution, pH 12): ≤ 20 min; time within which pH of aqueous solution changed from 2.0 to 6.0 (decarboxylation to (±)−17) ([6]; distilled water, 5.0 mg/mL): 5-6 days |
| CS(=O)(=O)OC1=C(C(=O)OCc2ccccc2)N2C(=O)[C@@H](NC(=O)Cc3ccccc3)[C@H]2CN1 (racemic) [(±)-11, Benzyl (6RS,7SR)-3-Methanesulfonyloxy-8-oxo-7-(phenylacetamido)-1,4-diazabicyclo[4.2.0]oct-2-ene-2-carboxylate] |  |  |  |  | > 128 |  | do not exhibit antibacterial activity |  | > 128 | > 128 |  |  |  | MIC ([1]; ATCC39188, 20 h): > 128 µg/mL; MIC [4]: > 128 µg/mL |
| CS(=O)(=O)C1=C(O)NC[C@@H]2[C@H](NC(=O)Cc3ccccc3)C(=O)N12 (racemic) [(±)-17, (6RS,7SR)-3-Hydroxy-8-oxo-7-(phenylacetamido)-1,4-diazabicyclo[4.2.0]oct-2-ene-2-methylsulfone] |  |  |  |  |  |  |  |  |  |  |  |  | >128 | time within which β-lactam ring was destructed [6]: two |
| O=C(Cc1ccccc1)N[C@@H]1C(=O)N2C(C(=O)O)=C(OS(=O)(=O)C(F)(F)F)NC[C@H]12 (racemic) [(±)-4, (6RS,7SR)-3-Trifluoromethanesulfonyloxy-8-oxo-7-(phenylacetamido)-1,4-diazabicyclo[4.2.0]oct-2-ene-2-carboxylic Acid] | 0.09 (≈ 0.2 µM) | 0.24 (≈ 0.534 µM) | 1.15 (≈ 2.56 µM) | 0.01 (≈ 0.0223 µM) | 0.68 (≈ 1.51 µM) | about 4.0 | promising antimicrobial activities | 100 to 102 |  |  |  |  |  | time within which pH of the aqueous solution changed to ˜1 (destruction of β-lactam ring) ([6]; distilled water, 5.0 mg/mL): two; time the β-lactam ring survived [6]: ~2 h; solubility ([8]; water): 27 mg/mL (≈ 60100 µM) |
| CC1(C)S[C@@H]2[C@H](NC(=O)Cc3ccccc3)C(=O)N2[C@H]1C(=O)O [penicillin G, reference compound] |  |  |  |  |  |  |  |  |  |  | 2.30 | 0.40 | >128 |  |
